Legend:
[1] = Ratio of hypoglycemic activity in mice was tested on day 7.; assay type: functional
Mus musculus [2] = assay: Daily water consumption was determined in mouse after oral administration of 500 mg/kg; assay type: functional
Mus musculus [3] = assay: Daily water consumption was determined in mouse after oral administration of 20 mg/kg; assay type: functional
Mus musculus [4] = assay: Body weight was determined in mouse after oral administration of 5 mg/kg on day 7; assay type: functional
Mus musculus [5] = assay: Body weight was determined in mouse after oral administration of 500 mg/kg on day 7; assay type: functional
Mus musculus [6] = assay: In vivo hypoglycemic activity after administration (50 mg/kg) in mice on day 0 was determined; assay type: functional
Rattus norvegicus [7] = assay: Body weight was determined in rat after oral administration of 500 mg/kg on day 0; assay type: functional
Rattus norvegicus [8] = assay: Lung weight was determined in rat after oral administration of 500 mg/kg; assay type: functional; parameters: unit not given beside the values
Mus musculus [9] = assay: Daily food consumption was determined in mouse after oral administration of 500 mg/kg; assay type: functional
Mus musculus [10] = assay: Daily food consumption was determined in mouse after oral administration of 5 mg/kg; assay type: functional
Mus musculus [11] = assay: Body weight was determined in mouse after oral administration of 500 mg/kg on day 0; assay type: functional
Mus musculus [12] = assay: Abnormal symptoms was determined in mouse after oral administration of 500 mg/kg; - sign indicates abnormal symptoms in treated mouse; assay type: functional, organism-based; parameters: dose 500 mg/kg
Rattus norvegicus [13] = assay: Liver weight was determined in rat after oral administration of 500 mg/kg; assay type: functional; parameters: unit not given beside the values
Mus musculus [14] = assay: Daily food consumption was determined in mouse after oral administration of 100 mg/kg; assay type: functional
Mus musculus [15] = assay: Abnormal symptoms was determined in mouse after oral administration of 100 mg/kg; - sign indicates abnormal symptoms in treated mouse; assay type: functional, organism-based; parameters: dose 100 mg/kg
Rattus norvegicus [16] = assay: Daily food consumption was determined in rat after oral administration of 500 mg/kg; assay type: functional
Mus musculus [17] = assay: Abnormal symptoms was determined in mouse after oral administration of 20 mg/kg; - sign indicates abnormal symptoms in treated mouse; assay type: functional, organism-based; parameters: dose 20 mg/kg
Mus musculus [18] = assay: Abnormal symptoms was determined in mouse after oral administration of 5 mg/kg; - sign indicates abnormal symptoms in treated mouse; assay type: functional, organism-based; parameters: dose 5 mg/kg
Mus musculus [19] = assay: Body weight was determined in mouse after oral administration of 20 mg/kg on day 0; assay type: functional
Rattus norvegicus [20] = assay: Spleen weight was determined in rat after oral administration of 500 mg/kg; assay type: functional; parameters: unit not given beside the values
Mus musculus [21] = assay: Body weight was determined in mouse after oral administration of 20 mg/kg on day 7; assay type: functional
Rattus norvegicus [22] = assay: Daily water consumption was determined in rat after oral administration of 500 mg/kg; assay type: functional
Mus musculus [23] = assay: In vivo hypoglycemic activity after administration (50 mg/kg) in mice on day 7 was determined; assay type: functional
Mus musculus [24] = assay: Body weight was determined in mouse after oral administration of 100 mg/kg on day 7; assay type: functional
Rattus norvegicus [25] = assay: Body weight was determined in rat after oral administration of 500 mg/kg on day 7; assay type: functional
Mus musculus [26] = assay: Daily water consumption was determined in mouse after oral administration of 100 mg/kg; assay type: functional
Mus musculus [27] = assay: Body weight was determined in mouse after oral administration of 100 mg/kg on day 0; assay type: functional
Mus musculus [28] = assay: Body weight was determined in mouse after oral administration of 5 mg/kg on day 0; assay type: functional
Rattus norvegicus [29] = assay: Abnormal symptoms was determined in rat after oral administration of 500 mg/kg; - sign indicates abnormal symptoms in treated mouse; assay type: functional, organism-based; parameters: dose 500 mg/kg
Mus musculus [30] = assay: Daily food consumption was determined in mouse after oral administration of 20 mg/kg; assay type: functional
Mus musculus [31] = assay: Daily water consumption was determined in mouse after oral administration of 5 mg/kg; assay type: functional
Mus musculus [32] = assay: In vivo hypoglycemic activity after administration (40 mg/kg) in mice on day 7 was determined; assay type: functional
Mus musculus [33] = assay: In vivo hypoglycemic activity after administration (40 mg/kg) in mice on day 0 was determined; assay type: functional
Rattus norvegicus [34] = assay: Kidney weight was determined in rat after oral administration of 500 mg/kg; assay type: functional
Mus musculus [35] = assay: In vivo hypoglycemic activity after administration (43 mg/kg) in mice on day 0 was determined; assay type: functional
Mus musculus [36] = assay: In vivo hypoglycemic activity after administration (43 mg/kg) in mice on day 7 was determined; assay type: functional

With `CCCCCCCCOc1cc(O)c2c(=O)cc(-c3ccccc3)oc2c1` the Ratio [1] was 51.4, the Water consumption (Mus musculus [2]) was 80.75 mL and the Water consumption (Mus musculus [3]) was 81.67 mL. It also gave a Body weight (Mus musculus [4]) of 30.8, a Body weight (Mus musculus [5]) of 30.1 and a Blood glucose (Mus musculus [6]) of 411.2 mg/dL. The Body weight (Rattus norvegicus [7]) was 230.8, the Organ weight (Rattus norvegicus [8]) was 1.26 and the Food intake (Mus musculus [9]) was 50.6 g. For the same compound, the Food intake (Mus musculus [10]) was 51.28 g, the Body weight (Mus musculus [11]) was 24 and the Activity (Mus musculus [12]) was “abnormal symptoms in treated mouse”. The Organ weight (Rattus norvegicus [13]) was 9.96, the Food intake (Mus musculus [14]) was 51.41 g and the Activity (Mus musculus [15]) was “abnormal symptoms in treated mouse”. For the same compound, the Food intake (Rattus norvegicus [16]) was 113.08 g, the Activity (Mus musculus [17]) was “abnormal symptoms in treated mouse” and the Activity (Mus musculus [18]) was “abnormal symptoms in treated mouse”. The Body weight (Mus musculus [19]) was 25.5, the Organ weight (Rattus norvegicus [20]) was 0.69 and the Body weight (Mus musculus [21]) was 32.1. The Water consumption (Rattus norvegicus [22]) was 205.91 mL, the Blood glucose (Mus musculus [23]) was 211.4 mg/dL and the Body weight (Mus musculus [24]) was 31.6. It also gave a Body weight (Rattus norvegicus [25]) of 290.8, a Water consumption (Mus musculus [26]) of 82.83 mL and a Body weight (Mus musculus [27]) of 24.8. The Body weight (Mus musculus [28]) was 23.8, the Activity (Rattus norvegicus [29]) was “abnormal symptoms in treated mouse” and the Food intake (Mus musculus [30]) was 52.57 g. For the same compound, the Water consumption (Mus musculus [31]) was 79.83 mL.

For `CCCOc1cc(O)c2c(=O)cc(-c3ccccc3)oc2c1`, the Ratio [1] was 59.5, the Blood glucose (Mus musculus [6]) was 400 mg/dL and the Blood glucose (Mus musculus [23]) was 237.8 mg/dL.

`CCCCCCCCCCCCOc1cc(O)c2c(=O)cc(-c3ccccc3)oc2c1` showed a Ratio [1] of 81.9, a Blood glucose (Mus musculus [6]) of 465.6 mg/dL and a Blood glucose (Mus musculus [23]) of 381.3 mg/dL.

With `Cc1ccc(C(=O)Oc2cc(O)c3c(=O)cc(-c4ccccc4)oc3c2)cc1` the Blood glucose (Mus musculus [32]) was 261.8 mg/dL, the Ratio [1] was 56.4 and the Water consumption (Mus musculus [2]) was 82.08 mL. For the same compound, the Water consumption (Mus musculus [3]) was 80.75 mL, the Body weight (Mus musculus [4]) was 32.2 and the Blood glucose (Mus musculus [33]) was 464.3 mg/dL. The Body weight (Mus musculus [5]) was 31.2, the Body weight (Rattus norvegicus [7]) was 237.5 and the Organ weight (Rattus norvegicus [8]) was 1.26. For the same compound, the Food intake (Mus musculus [9]) was 49.86 g, the Food intake (Mus musculus [10]) was 49.35 g and the Body weight (Mus musculus [11]) was 24.8. The Activity (Mus musculus [12]) was “abnormal symptoms in treated mouse”, the Organ weight (Rattus norvegicus [13]) was 9.6 and the Food intake (Mus musculus [14]) was 50.78 g. For the same compound, the Activity (Mus musculus [15]) was “abnormal symptoms in treated mouse”, the Food intake (Rattus norvegicus [16]) was 112.83 g and the Activity (Mus musculus [17]) was “abnormal symptoms in treated mouse”. For the same compound, the Activity (Mus musculus [18]) was “abnormal symptoms in treated mouse”, the Body weight (Mus musculus [19]) was 24.7 and the Organ weight (Rattus norvegicus [20]) was 0.66. The Body weight (Mus musculus [21]) was 31.4, the Water consumption (Rattus norvegicus [22]) was 216.83 mL and the Body weight (Mus musculus [24]) was 31.6. The Body weight (Rattus norvegicus [25]) was 302.5, the Water consumption (Mus musculus [26]) was 83.75 mL and the Body weight (Mus musculus [27]) was 25.2. The Body weight (Mus musculus [28]) was 25.1, the Organ weight (Rattus norvegicus [34]) was 0.98 and the Activity (Rattus norvegicus [29]) was “abnormal symptoms in treated mouse”. It also gave a Food intake (Mus musculus [30]) of 50.6 g and a Water consumption (Mus musculus [31]) of 80.42 mL.

With `COc1ccc(/C=C/C(=O)Oc2cc(O)c3c(=O)cc(-c4ccccc4)oc3c2)cc1` the Blood glucose (Mus musculus [32]) was 333.3 mg/dL, the Ratio [1] was 70 and the Blood glucose (Mus musculus [33]) was 475.9 mg/dL.

`O=C(Oc1cc(O)c2c(=O)cc(-c3ccccc3)oc2c1)c1ccc(F)cc1` gave a Blood glucose (Mus musculus [32]) of 362.5 mg/dL, a Ratio [1] of 79.3 and a Blood glucose (Mus musculus [33]) of 458.2 mg/dL.

In the case of `CCCCOc1cc(OCCCC)c2c(=O)cc(-c3ccccc3)oc2c1`, the Ratio [1] is reported as 89.3, the Blood glucose (Mus musculus [35]) is reported as 454.4 mg/dL and the Blood glucose (Mus musculus [36]) is reported as 405.7 mg/dL.

In the case of `CC(=O)Oc1cc(OC(C)=O)c2c(=O)cc(-c3ccccc3)oc2c1` [CHRYSIN DIACETATE], the Ratio [1] is reported as 72.4, the Blood glucose (Mus musculus [35]) is reported as 472 mg/dL and the Blood glucose (Mus musculus [36]) is reported as 341.5 mg/dL.

Reference: ChEMBL document CHEMBL1132521, “Synthesis and hypoglycemic effect of chrysin derivatives” (Bioorg Med Chem Lett, 1999)
